Test results: paper PMC5429621 (Scientific Reports, 2017)

What was measured:
Experiment in all cases: two-electrode voltage clamp, Xenopus oocytes
hP2X1R = target: T1, hP2X1R (Homo sapiens, UniProt P51575); format: cell-based
T1 construct: expressed in transfected cells; host or cells: Xenopus laevis oocytes (cRNA injected)
T1 sequence (P51575 1-399): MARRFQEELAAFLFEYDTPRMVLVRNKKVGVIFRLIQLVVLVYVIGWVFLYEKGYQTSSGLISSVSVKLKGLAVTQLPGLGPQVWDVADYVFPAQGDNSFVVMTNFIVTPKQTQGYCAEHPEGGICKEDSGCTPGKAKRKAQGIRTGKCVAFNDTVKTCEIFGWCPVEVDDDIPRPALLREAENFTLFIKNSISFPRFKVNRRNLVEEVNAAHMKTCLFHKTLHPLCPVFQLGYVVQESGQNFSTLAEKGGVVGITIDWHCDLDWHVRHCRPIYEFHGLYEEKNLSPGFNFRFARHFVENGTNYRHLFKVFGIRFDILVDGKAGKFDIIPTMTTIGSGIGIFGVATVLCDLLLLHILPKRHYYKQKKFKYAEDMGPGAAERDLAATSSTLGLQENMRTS
Source text: (§1) The hP2X1R was a gift from Dr Lin-Hua Jiang (University of Leeds, UK) and the hP2X1R cDNA has been described previously. Chimeras were generated by megaprimer-mediated domain swapping. In addition to chimeras, point mutations, deletions and insertions were made using the QuikChange (Stratagene) or Q5 (New England Bioscience) mutagenesis kits. The production of the correct mutations and absence of coding errors was verified by DNA sequencing (Automated ABI Sequencing Service, University of Leicester, UK).
(§2) P2XR constructs were transcribed to produce sense-strand cRNA (mMessage mMachine, Ambion, Austin, TX). Manually defoliculated stage V Xenopus laevis oocytes were injected with 50 nl (50 ng) of cRNA using an Inject + Matic microinjector (J.A. Gaby, InjectMatic, Geneva, Switzerland) and stored at 16 °C in ND96 buffer (in mM, NaCl 96, KCl 2, CaCl2 1.8, MgCl2 1, sodium pyruvate 5, HEPES 5 (pH 7.6) supplemented with 50 µg/ml gentamycin and 50 µg/ml tetracycline). For electrophysiological recordings (3–7 days post-injection) oocytes were bathed in divalent free ND96 buffer (in mM, NaCl 96, KCl 2, sodium pyruvate 5, HEPES 5 and 0.1 flufenamic acid, pH 7.6).
(§3) Two-electrode voltage clamp recordings were carried out using a GeneClamp 500B amplifier with a Digidata 1322 A analog to digital convertor and pCLAMP 8.2 acquisition software (Molecular Devices, Menolo Park, CA) at a holding potential of −60 mV. ATP (sodium salt, Sigma) was applied via a U-tube perfusion system for 3 s at 3–5 minute intervals to allow reproducible responses to be recorded. For determination of antagonist sensitivity AZ10606120 (Tocris) was bath perfused as well as co-applied with ATP through the U-tube. […]
(§4) Concentration response curves were normalized to the maximal response and fitted with the Hill equation (variable slope) with GraphPad Prism 6 (Graphpad software, San Diego, CA). […] Any significant differences were calculated by one-way analysis of variance, followed by Bonferroni’s test (using GraphPad Prism 6). […]

[1] = test system: hP2X7-2Nβ 74–79 C mutants; format: cell-based, human; conditions: response to EC90 ATP
Source text: as §1
P2XR constructs were transcribed to produce sense-strand cRNA (mMessage mMachine, Ambion, Austin, TX). […]
as §3, with “recorded.” for “recorded. For determination of antagonist sensitivity AZ10606120 (Tocris) was bath perfused as well as co-applied with ATP through the U-tube.”
as §4

hP2X7-2Nβ K110Y = target: T2, hP2X7-2Nβ K110Y (Homo sapiens, UniProt Q99572, I21V/K110Y/M24R/N16P/N25R/Q22R/R20V/S23N/T19I/Y26L); format: cell-based; conditions: relative to P2X7-2Nβ
T2 construct: expressed in transfected cells; host or cells: Xenopus laevis oocytes (cRNA injection)
T2 sequence (Q99572 1-595 N16P/T19I/R20V/I21V/Q22R/S23N/M24R/N25R/Y26L/K110Y): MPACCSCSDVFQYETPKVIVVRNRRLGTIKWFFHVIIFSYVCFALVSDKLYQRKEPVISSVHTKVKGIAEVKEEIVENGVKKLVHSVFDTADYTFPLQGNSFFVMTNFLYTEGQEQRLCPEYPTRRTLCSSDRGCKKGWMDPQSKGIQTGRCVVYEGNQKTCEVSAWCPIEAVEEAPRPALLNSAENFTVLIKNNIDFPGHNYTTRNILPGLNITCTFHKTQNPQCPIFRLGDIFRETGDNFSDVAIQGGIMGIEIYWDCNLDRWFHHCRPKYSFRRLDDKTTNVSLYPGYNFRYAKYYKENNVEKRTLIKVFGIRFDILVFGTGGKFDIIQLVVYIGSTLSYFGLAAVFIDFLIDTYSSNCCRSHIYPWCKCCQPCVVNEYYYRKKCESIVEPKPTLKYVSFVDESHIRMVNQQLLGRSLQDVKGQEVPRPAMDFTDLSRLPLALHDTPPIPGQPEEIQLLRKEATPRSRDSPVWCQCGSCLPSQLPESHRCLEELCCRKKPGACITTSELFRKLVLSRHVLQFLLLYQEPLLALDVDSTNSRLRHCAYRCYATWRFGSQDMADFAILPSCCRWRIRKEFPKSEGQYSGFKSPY
Source text: as §1, §2
ATP (sodium salt, Sigma) was applied via a U-tube perfusion system for 3 s at 3–5 minute intervals to allow reproducible responses to be recorded. […] To standardize for any change in ATP sensitivity at mutant receptors antagonists were co-applied with an EC90 concentration of ATP.
Concentration response curves were normalized to the maximal response and fitted with the Hill equation (variable slope) with GraphPad Prism 6 (Graphpad software, San Diego, CA). […] Individual concentration response curves were generated for individual experiments and statistical analysis was carried out on the data generated. In the figures the inhibition curves are fitted to the mean normalized data. Any significant differences were calculated by one-way analysis of variance, followed by Bonferroni’s test (using GraphPad Prism 6). Data are shown as mean ± SEM.

Row | SMILES | Peak amplitude (hP2X1R; P2X1, maximal ATP) [μA] | AZ10606120 pIC50 (hP2X1R; P2X1, EC90 ATP) | effect of AZ10606120 at P2X1R (hP2X1R; at 10 μM) | level of inhibition to 30 nM AZ10606120 [1] | increase in sensitivity to AZ10606120 (hP2X7-2Nβ K110Y)
1 | Nc1ncnc2c1ncn2[C@@H]1O[C@H](COP(=O)(O)OP(=O)(O)OP(=O)(O)O)[C@@H](O)[C@H]1O [ATP] | 7.90 ± 1.08 |  |  |  | 
2 | Cl.Cl.O=C(CC12CC3CC(CC(C3)C1)C2)Nc1cccc2nc(NCCNCCO)ccc12 [AZ10606120, N-[2-[[2-[(2-Hydroxyethyl)amino]ethyl]amino]-5-quinolinyl]-2-tricyclo[3.3.1.13,7]dec-1-ylacetamide dihydrochloride] |  | insensitive | ineffective | ~ 70% | ~ 100 fold
